“Also recorded” adds a separate entry of the source.
What was measured:
[1] = system: HEK293 cells having TCF/LEF luciferase reporter construct; test: TCF/LEF (Topflash) reporter assay; format: cell-based, human; conditions: graded doses of BCN057 vs vehicle control, 24 hr
Method: To determine the canonical WNT activity of BCN057 HEK293 cells (Signosis, Santa Clara, Calif.) having TCF/LEF luciferase reporter construct were treated with BCN057 or vehicle control or PBS. LiCl (10 mM) treatment was used as positive control for luciferase activity. Luciferase activity was determined 24 hr after using Dual-Luciferase Reporter Assay System (Promega) as per manufacturer's protocol. HEK293 cells having FOPFLASH construct (mutated TCF/LEF-binding site) were used as negative control. HEK293 (human embryonic kidney) cell line was routinely characterized in the lab based on morphology and gene-expression patterns. Cells were confirmed to be free of mycoplasma contamination.

[2] = system: intestinal epithelial integrity; test: FITC-dextran permeability assay; format: in vivo, mice
Method: Since dextran is unable to cross the GI epithelia unless it is compromised, dextran in the blood is a good indicator of epithelial damage. Blood FITC-dextran levels were measured at 4 h after gavage.
At day 5 post mice exposed to ABI and/or treated with BCN057 were gavaged with 0.6 mg g-1 body weight of a FITC-dextran solution ([…] size, Sigma). In all, four hrs. after gavage mice were killed and serum was obtained with cardiac puncture. Samples were measured in a 96-well plate using a Flexstation ii 384 multiwell fluorometer (Molecular Devices). A standard curve was constructed using mouse serum having increasing amounts of FITC-dextran to determine the serum levels of FITC-dextran in different treatment groups.

[3] = Solubility in aqueous formulations; format: physicochemical
Method: In another embodiment formulation for intravenous, subcutaneous and oral delivery of therapeutic levels of Yel002/BCN057 were developed comprising 30 wt % Captisol (SBE-beta-CD) and 100 mM MSA at pH 4.1 or higher (adjusted with 1.0 N NaOH).

[4] = system: irradiated intestinal epithelium (jejunum); test: Jejunum histology and crypt proliferation after AIR; format: in vivo
Excerpt: Since radiation doses>8 Gy induces cell cycle arrest and apoptosis of the crypt epithelial cells within day 1 post-radiation, resulting in a decrease in regenerating crypt colonies by day 3.5 and ultimately villi denudation by day 7 post-radiation exposure, animals were sacrificed when moribund or at 3.5 days after AIR for time course experiments and intestines were collected for histology. The intestine of each animal was dissected, washed in PBS to remove intestinal contents and the jejunum was fixed in 10% neutral-buffered formalin before paraffin embedding. Tissue was routinely processed and cut into 5 μm sections for haematoxylin and eosin and immunohistochemical staining. All haemotoxylin and eosin (HE) (Fisher Scientific, Pittsburgh, Pa.) staining was performed at the Pathology Core Facility in the KUMC Cancer Center.
To visualize villous cell proliferation mid-jejunum was collected for paraffin embedding and Ki67 immunohistochemistry. Tissue sections were routinely deparaffinized and rehydrated through graded alcohols and incubated overnight at room temperature with a monoclonal anti Ki67 antibody. Nuclear staining was visualized using streptavidin-peroxidase and diaminobenzidine (DAB) and samples were lightly counterstained with haematoxylin. […] The proliferation rate was calculated as the percentage of KI67-positive cells over the total number of cells in each crypt. A total of 60 crypts were examined per animal.
Crypt depth was independently and objectively analyzed and quantitated in a blind manner from coded digital photographs of crypts from HE-stained slides using ImageJ 1.37 software to measure the height in pixels from the bottom of the crypt to the crypt villus junction. Villi length was determined by measuring the length from the crypt villus junction to villous tip. This measurement in pixels was converted to length (in μm) by dividing with the following a conversion factor (1.46 pixels μm-1).

[5] = system: human colonic organoid developed from non-malignant tissue; test: Irradiated human colonic organoids from non-malignant tissue; format: cell-based
Method: FIG. 13. […] Note presence of budding crypt like structure in BCN057 treated group.
To examine the effect of BCN057 on human intestinal, epithelial tissue surgical specimen collected from normal colon at least 10 cm apart from malignant site was used to develop ex vivo crypt organoid. At a dose level of 8 Gy all the budding crypts have been disappeared in the organoids. […] The effect of BCN057 on mRNA level of β-catenin target genes in organoids was also evaluated.

MC38 colon tumor = MC38 colon tumor in the flank with AIR; format: in vivo, mice
Excerpt: FIG. 18. […] I) Schematic diagram of BCN057 treatment in C57B16 mice having MC38 colon tumor in the flank. Mice were exposed to AIR (15Gy) and then treated with BCN057 at 24 hrs post exposure. Ii) Representative image of C57B16 mice having MC38 colon tumor in the flank. Note reduction in tumor size in irradiated or un-irradiated tumor treated with BCN057 at day 20 post AIR. Mice exposed to AIR without BCN057 treatment are not part of this image as they died within day 15 post AIR.
Subcutaneous tumors were developed by injecting MC38 colon cancer cell in the flank. Mice with palpable, subcutaneous tumor were treated with AIR (16Gy) followed by eight doses of BCN057. AIR reduced the tumor growth but invariably produced 100% mortality of animals with a median survival time of 14+2 days.
Mice were injected subcutaneously with 1×105 MC38 (colon carcinoma cell line) cells on the flank, respectively. About 10 days later, the tumor became palpable (3-5 mm in diameter), whereupon abdominal irradiation 16 Gy was delivered. Mice were divided into 4 groups (n=10/group) receiving no treatment, AIR, BCN057 and BCN057 plus AIR. Animals received BCN057 eight times starting 24 hrs after AIR. Tumor measurements were performed thrice weekly using Vernier calipers along with simultaneous physical assessment of signs of systemic toxicity (malaise and diarrhea).

[6] = jejunum, BCN057 at 24 hrs after AIR vs irradiated control

COc1ccc2cc(-c3nc4ccc(C)cn4c3NCc3ccco3)c(=O)[nH]c2c1 [BCN057, 3-(3((furan-2-ylmethyl)ammo)-6-methylimidazo[1,2-a]pyridine-2-yl)-6-methoxyquinolin-2(1H)-one]
Luciferase activity (WNT activity) [1]: significant increase; also recorded: higher Luciferase activity; also recorded: strong WNT activity | serum FITC-dextran level ([2]; irradiated (AIR) mice treated with BCN057 vs irradiated untreated control, 4 h after gavage): significantly reduced; also recorded: lower serum dextran level | serum dextran level ([2]; unirradiated BCN057 treated mice vs irradiated control): lower serum dextran level | solubility ([3]; 30 wt % Captisol (SBE-beta-CD) and 100 mM MSA, at up to pH 4.1 or higher): excellent solubility | solubility in aqueous solution ([3]; physiologically compatible pHs, 100 mM MSA/10% PVP, 100 mM MSA/2% benzyl alcohol/2% NMP, 100 mM MSA/10% ethanol/1% Poloxamer 188): solubalized | number of crypt in jejunum ([4]; BCN057 at 24 hrs after AIR vs irradiated control): increase in number of crypts | crypt villus structure / epithelium (HE staining) ([4]; jejunum, 3.5 day after AIR, BCN057 at 24 hrs post AIR): normal crypt villus structure; also recorded: restitution of epithelium | % of Ki67 positive crypt cells [4, 6]: increase in crypt cell proliferation | Crypt Depth villi length [4, 6]: preserved villous length; also recorded: increase | budding crypts / organoid structure ([5]; 8Gy, BCN057 (20 ug/ml) at 1 hr post irradiation, 72 hrs): complete restitution of organoid structure; also recorded: rescued the organoids from radiation toxicity | Ki67 staining in budding crypt like structure ([5]; 8Gy, BCN057 treated organoids): positive staining | ratio of budding crypt to total number of crypts ([5]; irradiated organoids 4Gy and 8Gy, vs untreated irradiated control): increased | mice surviving beyond 30 days (MC38 colon tumor; AIR (16Gy) followed by eight doses of BCN057, AIR alone 100% mortality, n=10): 75% | tumor growth (MC38 colon tumor; AIR + BCN057 vs un-irradiated untreated control): significant tumor growth retardation; also recorded: significant reduction of tumor growth | tumor growth (MC38 colon tumor; BCN057 in un-irradiated mice vs un-irradiated untreated control): reduces the tumor growth | survival time (MC38 colon tumor; BCN057 post AIR vs AIR alone): significant improvement in survival time

— patent US11364231B2, “Methods of treating radiation induced gastrointestinal syndrome (RIGS) and related disease states using YEL002/BCN057” (priority 2017, dated 2022)
